{
  "source": "ChEMBL document CHEMBL5370605",
  "about": "“Discovery of Novel Fedratinib-Based HDAC/JAK/BRD4 Triple Inhibitors with Remarkable Antitumor Activity against Triple Negative Breast Cancer” (J Med Chem, 2023)",
  "key": {"MDA-MB-231 [1]": {"test_system": "MDA-MB-231", "experiment": "cells", "settings": "Homo sapiens, MDA-MB-231, 48 h"}, "[2]": {"experiment": "Selectivity index, ratio of IC50 for human GES-1 cells to IC50 for human MDA-MB-231 cells"}, "[3]": {"target": "Tyrosine-protein kinase JAK1 (Homo sapiens, UniProt P23458)", "sequence (P23458 whole entry)": "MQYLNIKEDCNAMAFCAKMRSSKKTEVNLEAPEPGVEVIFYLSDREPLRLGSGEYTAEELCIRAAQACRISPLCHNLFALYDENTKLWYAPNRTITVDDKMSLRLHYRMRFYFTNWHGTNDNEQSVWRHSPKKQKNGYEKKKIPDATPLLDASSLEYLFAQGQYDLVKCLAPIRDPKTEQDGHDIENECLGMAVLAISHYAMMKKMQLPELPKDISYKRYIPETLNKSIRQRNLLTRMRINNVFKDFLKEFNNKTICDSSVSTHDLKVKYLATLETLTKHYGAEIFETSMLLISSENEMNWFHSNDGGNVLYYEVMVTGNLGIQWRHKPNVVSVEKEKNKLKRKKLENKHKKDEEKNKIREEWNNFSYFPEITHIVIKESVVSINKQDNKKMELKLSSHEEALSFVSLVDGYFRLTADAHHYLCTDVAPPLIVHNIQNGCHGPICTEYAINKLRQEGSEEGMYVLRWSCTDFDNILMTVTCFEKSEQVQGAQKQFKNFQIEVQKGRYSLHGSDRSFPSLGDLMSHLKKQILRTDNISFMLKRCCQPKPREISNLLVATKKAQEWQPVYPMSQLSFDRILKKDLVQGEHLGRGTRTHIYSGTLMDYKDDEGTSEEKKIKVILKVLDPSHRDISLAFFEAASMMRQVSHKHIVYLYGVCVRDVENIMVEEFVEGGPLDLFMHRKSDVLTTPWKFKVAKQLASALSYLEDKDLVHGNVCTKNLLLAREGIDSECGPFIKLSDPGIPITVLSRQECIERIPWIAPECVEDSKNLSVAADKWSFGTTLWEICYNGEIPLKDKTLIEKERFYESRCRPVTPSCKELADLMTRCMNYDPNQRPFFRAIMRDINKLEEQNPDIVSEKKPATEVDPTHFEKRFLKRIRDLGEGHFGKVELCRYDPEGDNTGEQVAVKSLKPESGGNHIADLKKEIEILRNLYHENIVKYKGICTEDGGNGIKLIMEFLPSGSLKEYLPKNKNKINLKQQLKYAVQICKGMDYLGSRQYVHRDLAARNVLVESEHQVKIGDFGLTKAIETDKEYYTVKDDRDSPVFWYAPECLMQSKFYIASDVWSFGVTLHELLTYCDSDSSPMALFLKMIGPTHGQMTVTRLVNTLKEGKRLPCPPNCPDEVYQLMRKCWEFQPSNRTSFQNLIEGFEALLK", "experiment": "Inhibition of JAK1 (unknown origin) incubated for 40 mins in presence of ATP by Kinase-glo luminescent assay"}, "[4]": {"target": "Bromodomain-containing protein 4 (Homo sapiens, UniProt O60885)", "experiment": "Inhibition of recombinant BRD4 BD1 (unknown origin) using H4KAc as substrate incubated for 30 mins by HTRF analysis"}, "in vitro": {"experiment": "in vitro", "settings": "human, GES1 cells"}, "Histone deacetylase 1": {"target": "Histone deacetylase 1 (Homo sapiens, UniProt Q13547)", "sequence (Q13547 whole entry)": "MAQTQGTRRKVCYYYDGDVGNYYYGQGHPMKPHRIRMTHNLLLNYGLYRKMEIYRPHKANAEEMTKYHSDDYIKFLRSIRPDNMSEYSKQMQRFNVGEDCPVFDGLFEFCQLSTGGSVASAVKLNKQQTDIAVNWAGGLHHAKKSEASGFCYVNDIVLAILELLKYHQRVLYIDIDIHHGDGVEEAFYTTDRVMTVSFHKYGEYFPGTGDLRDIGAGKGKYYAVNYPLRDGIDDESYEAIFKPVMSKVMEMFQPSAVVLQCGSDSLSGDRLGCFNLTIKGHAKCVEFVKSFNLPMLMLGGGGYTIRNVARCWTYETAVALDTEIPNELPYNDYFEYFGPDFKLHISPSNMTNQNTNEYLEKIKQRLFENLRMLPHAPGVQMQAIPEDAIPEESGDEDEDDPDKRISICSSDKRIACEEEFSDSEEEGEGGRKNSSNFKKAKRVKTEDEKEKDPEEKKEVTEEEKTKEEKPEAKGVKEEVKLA", "experiment": "Inhibition of HDAC1 (unknown origin) using Boc-Lys(Ac)-AMC as substrate incubated for 30 mins by fluorescence based analysis"}, "MDA-MB-231 [5]": {"test_system": "MDA-MB-231", "experiment": "Antiproliferative activity against human MDA-MB-231 cells assessed as inhibition of cell growth incubated for 48 hrs in presence of SAHA by MTT assay", "assay_type": "functional, cell-based", "settings": "MDA-MB-231, 48 h"}, "[6]": {"experiment": "Half life in ICR (CD-1) mouse at 10 mg/kg, iv measured for 24 hrs by LC-MS/MS analysis", "assay_type": "ADME, organism-based", "settings": "in vivo"}, "[7]": {"experiment": "Bioavailability in ICR (CD-1) mouse at 50 mg/kg, ip measured for 24 hrs by LC-MS/MS analysis", "assay_type": "ADME, organism-based", "settings": "ICR (CD-1), in vivo"}, "[8]": {"experiment": "Cmax in ICR (CD-1) mouse at 10 mg/kg, iv measured for 24 hrs by LC-MS/MS analysis", "assay_type": "ADME, organism-based", "parameters": "time 24 hrs, dose 10 mg/kg, route iv", "settings": "in vivo"}, "[9]": {"experiment": "Volume of distribution at steady state in ICR (CD-1) mouse at 10 mg/kg, iv measured for 24 hrs by LC-MS/MS analysis", "assay_type": "ADME, organism-based", "settings": "in vivo"}, "[10]": {"experiment": "Toxicity in athymic BALB/c nude mouse xenografted with human MDA-MB-231 cells assessed as reduction in body weight at 25 mg/kg/day, ip administered for 28 consecutive days", "assay_type": "organism-based", "settings": "in vivo, 672 h, time 28 day"}, "[11]": {"experiment": "MRT (0 to t) in ICR (CD-1) mouse at 50 mg/kg, ip measured for 24 hrs by LC-MS/MS analysis", "assay_type": "ADME, organism-based", "settings": "in vivo"}, "[12]": {"experiment": "Metabolic stability in mouse liver microsomes assessed as intrinsic clearance in presence of NADPH by LC-MS/MS analysis", "assay_type": "ADME, Microsome", "settings": "read-out: CLH"}, "[13]": {"experiment": "Tmax in ICR (CD-1) mouse at 50 mg/kg, ip measured for 24 hrs by LC-MS/MS analysis", "assay_type": "ADME, organism-based", "settings": "in vivo"}, "[14]": {"experiment": "Half life in ICR (CD-1) mouse at 50 mg/kg, ip measured for 24 hrs by LC-MS/MS analysis", "assay_type": "ADME, organism-based", "settings": "in vivo"}, "GES1": {"test_system": "GES1", "experiment": "Cytotoxicity against human GES1 cells at 1 uM incubated for 48 hrs by MTT assay", "assay_type": "toxicity, cell-based", "settings": "ges1, 48 h"}, "[15]": {"experiment": "AUC (0 to t) in ICR (CD-1) mouse at 10 mg/kg, iv measured for 24 hrs by LC-MS/MS analysis", "assay_type": "ADME, organism-based", "parameters": "dose 10 mg/kg, time 24 hrs, route iv", "settings": "in vivo"}, "[16]": {"experiment": "MRT (0 to t) in ICR (CD-1) mouse at 10 mg/kg, iv measured for 24 hrs by LC-MS/MS analysis", "assay_type": "ADME, organism-based", "settings": "in vivo"}, "[17]": {"experiment": "In vivo inhibition of HDAC1 in athymic BALB/c nude mouse xenografted with human MDA-MB-231 cells assessed as fold change in acetyl-histone H3 level in tumor at 25 mg/kg, ip administered for 28 consecutive days by Western blot analysis (reference value: 1)", "assay_type": "functional", "settings": "time 28 day"}, "[18]": {"experiment": "In vivo inhibition of BRD4 in athymic BALB/c nude mouse xenografted with human MDA-MB-231 cells assessed as fold change in c-Myc level in tumor at 25 mg/kg, ip administered for 28 consecutive days by Western blot analysis (reference value: 1)", "assay_type": "functional", "settings": "time 28 day"}, "MDA-MB-231 [19]": {"test_system": "MDA-MB-231", "experiment": "Antitumor activity against human MDA-MB-231 cells xenografted in athymic BALB/c nude mouse assessed as the tumor growth inhibition at 25 mg/kg/day, ip administered for 28 days and measured every 3 days by vernier caliper analysis relative to control", "assay_type": "functional", "settings": "MDA-MB-231, 672 h, time 28 day, read-out: TGI"}, "[20]": {"experiment": "AUC (0 to t) in ICR (CD-1) mouse at 50 mg/kg, ip measured for 24 hrs by LC-MS/MS analysis", "assay_type": "ADME, organism-based", "parameters": "dose 50 mg/kg, time 24 hrs, route ip", "settings": "in vivo"}, "[21]": {"experiment": "In vivo inhibition of JAK1 in athymic BALB/c nude mouse xenografted with human MDA-MB-231 cells assessed as fold change in STAT3 level in tumor at 25 mg/kg, ip administered for 28 consecutive days by Western blot analysis (reference value: 1)", "assay_type": "functional", "settings": "time 28 day"}, "[22]": {"experiment": "Cytotoxicity against human GES1 cells assessed as inhibition of cell growth incubated for 48 hrs in presence of SAHA by MTT assay", "assay_type": "toxicity, cell-based"}, "[23]": {"experiment": "Cmax in ICR (CD-1) mouse at 50 mg/kg, ip measured for 24 hrs by LC-MS/MS analysis", "assay_type": "ADME, organism-based", "parameters": "time 24 hrs, dose 50 mg/kg, route ip", "settings": "in vivo"}, "[24]": {"experiment": "Metabolic stability in mouse liver microsomes assessed as half life in presence of NADPH by LC-MS/MS analysis", "assay_type": "ADME, Microsome"}, "[25]": {"experiment": "In vivo inhibition of JAK1 in athymic BALB/c nude mouse xenografted with human MDA-MB-231 cells assessed as fold change in phosphorylated STAT3 level at Tyr705 residue in tumor at 25 mg/kg, ip administered for 28 consecutive days by Western blot analysis (reference value: 1)", "assay_type": "functional", "settings": "time 28 day"}, "[26]": {"experiment": "Toxicity in athymic BALB/c nude mouse xenografted with human MDA-MB-231 cells assessed as reduction in body weight at 50 mg/kg/day, ip administered for 2 days", "assay_type": "organism-based", "settings": "in vivo, 48 h, time 2 day"}},
  "data": [
    {"compound": "CCCN(N)C(=O)c1ccc(Nc2nc(Nc3ccc(N4CCN(C)CC4)c(F)c3)ncc2C)cc1", "values": [
      {"measurement": "IC50", "setting": "MDA-MB-231 [1]", "value": 4500, "unit": "nM"},
      {"measurement": "selectivity ratio", "setting": "[2]", "value": 2.5},
      {"measurement": "IC50", "setting": "[3]", "value": 10.4, "unit": "nM"},
      {"measurement": "IC50", "setting": "[4]", "value": 2360, "unit": "nM"},
      {"measurement": "IC50 at 48 h", "setting": "in vitro", "value": 11500, "unit": "nM"},
      {"measurement": "IC50", "setting": "Histone deacetylase 1", "value": "> 5000", "unit": "nM"}
    ]},
    {"compound": "Cc1cnc(Nc2ccc(/C=C/C(=O)NO)cc2)nc1Nc1ccc(Cl)c(NS(=O)(=O)C(C)(C)C)c1", "values": [
      {"measurement": "IC50", "setting": "MDA-MB-231 [1]", "value": 3400, "unit": "nM"},
      {"measurement": "selectivity ratio", "setting": "[2]", "value": 7.1},
      {"measurement": "IC50", "setting": "[3]", "value": 14.6, "unit": "nM"},
      {"measurement": "IC50", "setting": "[4]", "value": 1290, "unit": "nM"},
      {"measurement": "IC50 at 48 h", "setting": "in vitro", "value": 28600, "unit": "nM"},
      {"measurement": "IC50", "setting": "Histone deacetylase 1", "value": 380, "unit": "nM"}
    ]},
    {"compound": "Cc1cnc(Nc2ccc(N3CCN(C)CC3)c(F)c2)nc1Nc1ccc(C(=O)Nc2ccccc2N)cc1", "values": [
      {"measurement": "IC50", "setting": "MDA-MB-231 [1]", "value": 2200, "unit": "nM"},
      {"measurement": "selectivity ratio", "setting": "[2]", "value": 4.4},
      {"measurement": "IC50", "setting": "[3]", "value": 5.9, "unit": "nM"},
      {"measurement": "IC50", "setting": "[4]", "value": 1810, "unit": "nM"},
      {"measurement": "IC50 at 48 h", "setting": "in vitro", "value": 9700, "unit": "nM"},
      {"measurement": "IC50", "setting": "Histone deacetylase 1", "value": "> 5000", "unit": "nM"}
    ]},
    {"compound": "Cc1cnc(Nc2ccc(OCCN3CCCC3)cc2)nc1Nc1cccc(S(=O)(=O)NC(C)(C)C)c1", "note": "[FEDRATINIB]", "values": [
      {"measurement": "IC50", "setting": "MDA-MB-231 [5]", "value": 460, "unit": "nM"},
      {"measurement": "IC50", "setting": "MDA-MB-231 [1]", "value": 1400, "unit": "nM"},
      {"measurement": "t1/2", "setting": "[6]", "value": 327, "unit": "min"},
      {"measurement": "bioavailability", "setting": "[7]", "value": 102, "unit": "%"},
      {"measurement": "Cmax", "setting": "[8]", "value": 4430, "unit": "ng/mL"},
      {"measurement": "Vdss", "setting": "[9]", "value": 8.74, "unit": "L/kg"},
      {"measurement": "Activity", "setting": "[10]", "value": "Non-Toxic"},
      {"measurement": "MRT last at 24 h", "setting": "[11]", "value": 140, "unit": "min"},
      {"measurement": "CLint scaled", "setting": "[12]", "value": 976, "unit": "mL/min/kg"},
      {"measurement": "Tmax", "setting": "[13]", "value": 4.8, "unit": "min"},
      {"measurement": "half-life", "setting": "[14]", "value": 173, "unit": "min"},
      {"measurement": "Activity", "setting": "GES1", "value": "Toxic"},
      {"measurement": "AUCt", "setting": "[15]", "value": 2825, "unit": "ng·h/mL"},
      {"measurement": "MRT(t)", "setting": "[16]", "value": 113, "unit": "min"},
      {"measurement": "fold change (FC)", "setting": "[17]", "value": 0.8},
      {"measurement": "fold change (FC)", "setting": "[18]", "value": 1.1},
      {"measurement": "inhibition in vivo at 25 mg/kg/day", "setting": "MDA-MB-231 [19]", "value": 32, "unit": "%"},
      {"measurement": "AUC(0-t) at 24 h", "setting": "[20]", "value": 14500, "unit": "ng·h/mL"},
      {"measurement": "IC50 at 48 h", "setting": "in vitro", "value": 890, "unit": "nM"},
      {"measurement": "fold change (FC)", "setting": "[21]", "value": 1.3},
      {"measurement": "IC50 at 48 h", "setting": "[22]", "value": 610, "unit": "nM"},
      {"measurement": "Cmax", "setting": "[23]", "value": 9750, "unit": "ng/mL"},
      {"measurement": "half-life", "setting": "[24]", "value": 5.6, "unit": "min"},
      {"measurement": "fold change (FC)", "setting": "[25]", "value": 0.5},
      {"measurement": "Activity", "setting": "[26]", "value": "Toxic"}
    ]},
    {"compound": "O=C(CCCCCCC(=O)Nc1ccccc1)NO", "note": "[VORINOSTAT]", "values": [
      {"measurement": "t1/2", "setting": "[6]", "value": 17.4, "unit": "min"},
      {"measurement": "bioavailability", "setting": "[7]", "value": 65, "unit": "%"},
      {"measurement": "Cmax", "setting": "[8]", "value": 6640, "unit": "ng/mL"},
      {"measurement": "Vdss", "setting": "[9]", "value": 1.59, "unit": "L/kg"},
      {"measurement": "MRT last at 24 h", "setting": "[11]", "value": 40.2, "unit": "min"},
      {"measurement": "Tmax", "setting": "[13]", "value": 4.8, "unit": "min"},
      {"measurement": "half-life", "setting": "[14]", "value": 81, "unit": "min"},
      {"measurement": "AUCt", "setting": "[15]", "value": 783, "unit": "ng·h/mL"},
      {"measurement": "MRT(t)", "setting": "[16]", "value": 7.2, "unit": "min"},
      {"measurement": "AUC(0-t) at 24 h", "setting": "[20]", "value": 2550, "unit": "ng·h/mL"},
      {"measurement": "Cmax", "setting": "[23]", "value": 3930, "unit": "ng/mL"}
    ]}
  ]
}
